The target of assay [1] is human PI3Kα (Homo sapiens (Human), UniProt P42336). The assay can be described thus: Human PI3Kα activity test (luciferin/luciferase ATP consumption, KinaseGlo). The assay is classed as biochemical. The settings on record: PI3Kα (p110α/p85α), 50 μM PIP2, 2 μM ATP, 90 minutes; read-out: IC50 Human PI3Kα.
Description: The test uses a luciferin/luciferase system to measure the concentration of ATP and its consumption during the enzymatic reaction.
After 90 minutes, the reaction is quenched by adding 20 μl/well of KinaseGlo reagent (Promega V6713). After 10 minutes in the dark, the luminescence is read using a PHERAStar microplate reader (reading at 0.8 sec/well).
Assay [2] concerns Plasmodium falciparum (strain NF54). The experiment in a line: Antimalarial activity test: growth of Plasmodium falciparum in infected human erythrocytes, 3H-hypoxanthine incorporation. Type of assay: cell-based. The settings on record: strain NF54 sensitive to chloroquine, 72 h total incubation. Put shortly: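 Chloroquine-sensitive NF54 parasites in human erythrocytes (1.25% hematocrit, 0.15% parasitemia) were grown in hypoxanthine-free RPMI 1640 with HEPES and Albumax II, with compound in twofold serial dilution, at 37 °C under 93% N2/4% CO2/3% O2. After 48 h, 3H-hypoxanthine (0.5 μCi) was added for 24 h. Scintillation counts versus drug-free control gave IC50.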

[3] abbreviates: Plasmodium falciparum, Erythrocyte.

Bounds are passed on as bounds.

Chain of human PI3Kα (P42336 whole entry): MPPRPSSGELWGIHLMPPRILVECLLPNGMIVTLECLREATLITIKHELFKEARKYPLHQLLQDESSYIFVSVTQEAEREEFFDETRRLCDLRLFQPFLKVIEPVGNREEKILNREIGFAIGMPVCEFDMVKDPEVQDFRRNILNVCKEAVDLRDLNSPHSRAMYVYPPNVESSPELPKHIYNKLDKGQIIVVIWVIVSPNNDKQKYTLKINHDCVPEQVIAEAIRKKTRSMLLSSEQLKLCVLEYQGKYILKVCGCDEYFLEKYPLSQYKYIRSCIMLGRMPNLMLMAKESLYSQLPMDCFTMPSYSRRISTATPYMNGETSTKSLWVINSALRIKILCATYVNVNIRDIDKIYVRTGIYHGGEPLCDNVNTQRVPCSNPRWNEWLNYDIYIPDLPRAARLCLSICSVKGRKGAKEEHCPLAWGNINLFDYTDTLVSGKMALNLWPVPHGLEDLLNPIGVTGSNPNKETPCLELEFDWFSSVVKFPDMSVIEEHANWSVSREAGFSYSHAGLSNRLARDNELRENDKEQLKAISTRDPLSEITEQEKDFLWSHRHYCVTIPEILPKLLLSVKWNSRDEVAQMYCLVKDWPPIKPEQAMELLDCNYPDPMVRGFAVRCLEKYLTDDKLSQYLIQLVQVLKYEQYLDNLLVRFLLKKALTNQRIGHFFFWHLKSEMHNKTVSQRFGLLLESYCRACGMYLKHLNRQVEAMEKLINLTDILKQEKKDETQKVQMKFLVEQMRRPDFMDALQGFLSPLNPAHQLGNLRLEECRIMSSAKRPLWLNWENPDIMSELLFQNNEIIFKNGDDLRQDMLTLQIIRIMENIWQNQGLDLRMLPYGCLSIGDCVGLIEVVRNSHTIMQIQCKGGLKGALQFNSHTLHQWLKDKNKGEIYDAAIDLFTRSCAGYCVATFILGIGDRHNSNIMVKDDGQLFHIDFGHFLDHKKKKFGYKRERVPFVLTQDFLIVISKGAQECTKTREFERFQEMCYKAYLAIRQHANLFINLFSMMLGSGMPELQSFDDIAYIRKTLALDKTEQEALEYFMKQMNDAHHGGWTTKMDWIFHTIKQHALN
Chain of human PI3Kα (P27986 whole entry partner): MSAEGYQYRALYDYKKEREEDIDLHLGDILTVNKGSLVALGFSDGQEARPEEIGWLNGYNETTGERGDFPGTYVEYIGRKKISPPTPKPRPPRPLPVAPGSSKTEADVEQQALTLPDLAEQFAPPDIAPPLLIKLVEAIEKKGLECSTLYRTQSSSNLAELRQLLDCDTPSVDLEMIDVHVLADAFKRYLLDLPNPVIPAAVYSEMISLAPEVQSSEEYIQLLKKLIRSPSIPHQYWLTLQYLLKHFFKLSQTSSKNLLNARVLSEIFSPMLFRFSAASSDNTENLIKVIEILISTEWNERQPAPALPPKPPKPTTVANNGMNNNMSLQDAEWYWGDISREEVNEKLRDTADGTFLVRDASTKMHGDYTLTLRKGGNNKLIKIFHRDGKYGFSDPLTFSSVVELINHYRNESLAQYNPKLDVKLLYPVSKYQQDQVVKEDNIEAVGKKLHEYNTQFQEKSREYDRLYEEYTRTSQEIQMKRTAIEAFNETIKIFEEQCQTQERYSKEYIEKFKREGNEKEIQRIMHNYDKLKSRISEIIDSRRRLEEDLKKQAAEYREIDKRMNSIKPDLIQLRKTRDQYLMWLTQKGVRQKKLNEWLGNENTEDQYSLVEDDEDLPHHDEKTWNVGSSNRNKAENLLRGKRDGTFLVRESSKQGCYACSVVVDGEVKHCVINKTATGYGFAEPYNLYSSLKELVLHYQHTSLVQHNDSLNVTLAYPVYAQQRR

As to `Cn1nc(CN2c3nc(N4C[C@@H]5C[C@H]4CO5)cc(=O)n3CC[C@H]2C(F)(F)F)c2ccccc21` [Compound 51, (8S)-9-(1-methyl-1H-indazol-3-ylmethyl)-2-(1S,4S)-2-oxa-5-azabicyclo[2.2.1]hept-5-yl-8-trifluoromethyl-6,7,8,9-tetrahydropyrimido[1,2-a]pyrimidin-4-one], the values for the IC50 in assay [1] and in assay [2] (setting [3]) were greater than 10000 nM and 65 nM, respectively.

In the case of `O=C(CN1c2nc(N3C[C@@H]4C[C@H]3CO4)cc(=O)n2CC[C@H]1C(F)(F)F)c1cnc(OCC2CC2)nc1` [Compound 52, (8S)-9-[2-(2-Cyclopropylmethoxypyrimidin-5-yl)-2-oxoethyl]-2-(1S,4S)-2-oxa-5-azabicyclo[2.2.1]hept-5-yl-8-trifluoromethyl-6,7,8,9-tetrahydropyrimido[1,2-a]pyrimidin-4-one], the values for the IC50 in assay [1] and in assay [2] (setting [3]) were greater than 10000 nM and 130 nM, respectively.

Consider `Cc1noc(C)c1C(=O)CN1c2nc(N3C[C@@H]4C[C@H]3CO4)cc(=O)n2CC[C@H]1C(F)(F)F` [Compound 53, (8S)-9-[2-(3,5-dimethylisoxazol-4-yl)-2-oxoethyl]-2-(1S,4S)-2-oxa-5-azabicyclo[2.2.1]hept-5-yl-8-trifluoromethyl-6,7,8,9-tetrahydropyrimido[1,2-a]pyrimidin-4-one], for which the IC50 in assay [1] was greater than 10000 nM; in assay [2] (setting [3]), 870 nM.

For `CCC(O)(CC)CN1c2nc(N3C[C@@H]4C[C@H]3CO4)cc(=O)n2CC[C@H]1C(F)(F)F` [Compound 54, (8S)-9-(2-ethyl-2-hydroxybutyl)-2-(1S,4S)-2-oxa-5-azabicyclo[2.2.1]hept-5-yl-8-trifluoromethyl-6,7,8,9-tetrahydropyrimido[1,2-a]pyrimidin-4-one], the IC50 in assay [1] stood at 2210 nM; in assay [2] (setting [3]), 10 nM.

Take `N#Cc1cccc(C(=O)CN2c3nc(N4C[C@@H]5C[C@H]4CO5)cc(=O)n3CC[C@H]2C(F)(F)F)c1` [Compound 55, 3-[2-((S)-8-(1S,4S)-2-Oxa-5-azabicyclo[2.2.1]hept-5-yl-6-oxo-2-trifluoromethyl-3,4-dihydro-2H,6H-pyrimido[1,2-a]pyrimidin-1-yl)acetyl]benzonitrile]: the IC50 in assay [1] is greater than 10000 nM; in assay [2] it was 28 nM.

As for `CC(C)C(=O)CN1c2nc(N3C[C@@H]4C[C@H]3CO4)cc(=O)n2CC[C@H]1C(F)(F)F` [Compound 56, (8S)-9-(3-methyl-2-oxobutyl)-2-(1S,4S)-2-oxa-5-azabicyclo[2.2.1]hept-5-yl-8-trifluoromethyl-6,7,8,9-tetrahydropyrimido[1,2-a]pyrimidin-4-one], the IC50 in assay [1] is greater than 10000 nM; in assay [2] (setting [3]), 45 nM.

For `CCOC(=O)Nc1ccc(C(=O)CN2c3nc(N4C[C@@H]5C[C@H]4CO5)cc(=O)n3CC[C@H]2C(F)(F)F)cn1` [Compound 57, ethyl {5-[2-((S)8-(1S,4S)-2-oxa-5-azabicyclo[2.2.]hept-5-yl-6-oxo-2-trifluoromethyl-3,4-dihydro-2H,6H-pyrimido[1,2-a]pyrimidin-1-yl)acetyl]pyrid-2-yl}carbamate], the values for the IC50 in assay [1] and in assay [2] (setting [3]) were greater than 10000 nM and 65 nM, respectively.

On to `COC(=O)Nc1ccc(C(=O)CN2c3nc(N4C[C@@H]5C[C@H]4CO5)cc(=O)n3CC[C@H]2C(F)(F)F)cn1` [Compound 58, {5-[2-((S)-8-(1S,4S)-2-Oxa-5-azabicyclo[2.2.1]hept-5-yl-6-oxo-2-trifluoromethyl-3,4-dihydro-2H,6H-pyrimido[1,2-a]pyrimidin-1-yl)acetyl]pyrid-2-yl}carbamic acid methyl ester], for which the IC50 in assay [1] amounted to 6400 nM; in assay [2], 53 nM.

For the compound `Cc1nc(CN2c3nc(N4C[C@@H]5C[C@H]4CO5)cc(=O)n3CC[C@H]2C(F)(F)F)no1` [Compound 59, (8S)-9-(5-Methyl-[1,2,4]oxadiazol-3-ylmethyl)-2-(1S,4S)-2-oxa-5-azabicyclo[2.2.1]hept-5-yl-8-trifluoromethyl-6,7,8,9-tetrahydropyrimido[1,2-a]pyrimidin-4-one], the IC50 in assay [1] was greater than 10000 nM; in assay [2] (setting [3]), 87 nM.

With `O=C(CN1c2nc(N3C[C@@H]4C[C@H]3CO4)cc(=O)n2CC[C@H]1C(F)(F)F)c1cccnc1C(F)(F)F` [Compound 60, (8S)-2-(1S,4S)-2-Oxa-5-azabicyclo[2.2.1]hept-5-yl-9-[2-oxo-2-(2-trifluoromethylpyrid-3-yl)ethyl]-8-trifluoromethyl-6,7,8,9-tetrahydropyrimido[1,2-a]pyrimidin-4-one], the IC50 is greater than 10000 nM in assay [1] and 19 nM in assay [2].

Consider `O=C(CN1c2nc(N3C[C@@H]4C[C@H]3CO4)cc(=O)n2CC[C@H]1C(F)(F)F)c1ccc2nsnc2c1` [Compound 61, (8S)-9-(2-Benzo[1,2,5]thiadiazol-5-yl-2-oxoethyl)-2-(1S,4S)-2-oxa-5-azabicyclo[2.2.1]hept-5-yl-8-trifluoromethyl-6,7,8,9-tetrahydropyrimido[1,2-a]pyrimidin-4-one], for which the IC50 in assay [1] was greater than 10000 nM; in assay [2] (setting [3]), 130 nM.

For the compound `O=C(CN1c2nc(N3C[C@@H]4C[C@H]3CO4)cc(=O)n2CC[C@H]1C(F)(F)F)C1CCOCC1` [Compound 62, (8S)-2-(1S,4S)-2-Oxa-5-azabicyclo[2.2.1]hept-5-yl-9-[2-oxo-2-(tetrahydropyran-4-yl)ethyl]-8-trifluoromethyl-6,7,8,9-tetrahydropyrimido[1,2-a]pyrimidin-4-one], the results for the IC50 in assay [1] and in assay [2] (setting [3]) were greater than 10000 nM and 11 nM, respectively.

As to `O=C(CN1c2nc(N3C[C@@H]4C[C@H]3CO4)cc(=O)n2CC[C@H]1C(F)(F)F)c1ccc(OCCF)nc1` [Compound 63, (S)-9-{2-[6-(2-fluoroethoxy)pyrid-3-yl]-2-oxoethyl}-2-(1S,4S)-2-oxa-5-azabicyclo[2.2.1]hept-5-yl-8-trifluoromethyl-6,7,8,9-tetrahydropyrimido[1,2-a]pyrimidin-4-one], the 50% inhibitory concentration (IC50) is greater than 7200 nM in assay [1] and 384 nM in assay [2] (setting [3]).

Consider `O=C(CN1c2nc(N3C[C@@H]4C[C@H]3CO4)cc(=O)n2CC[C@H]1C(F)(F)F)c1ccc(OCCF)c(F)c1` [Compound 64, (8S)-9-{2-[3-Fluoro-4-(2-fluoroethoxyl)phenyl]-2-oxoethyl}-2-(1S,4S)-2-oxa-5-azabicyclo[2.2.1]hept-5-yl-8-trifluoromethyl-6,7,8,9-tetrahydropyrimido[1,2-a]pyrimidin-4-one], for which the IC50 in assay [1] was greater than 10000 nM; in assay [2] (setting [3]), 39 nM.

For `COc1ncccc1C(=O)CN1c2nc(N3C[C@@H]4C[C@H]3CO4)cc(=O)n2CC[C@H]1C(F)(F)F` [Compound 65, (8S)-9-[2-(2-Methoxypyrid-3-yl)-2-oxoethyl]-2-(1S,4S)-2-oxa-5-azabicyclo[2.2.1]hept-5-yl-8-trifluoromethyl-6,7,8,9-tetrahydropyrimido[1,2-a]pyrimidin-4-one], the IC50 in assay [1] was greater than 10000 nM; in assay [2] (setting [3]) it was 21 nM.

As to `Cn1cncc1C(=O)CN1c2nc(N3C[C@@H]4C[C@H]3CO4)cc(=O)n2CC[C@H]1C(F)(F)F` [Compound 66, (8S)-9-[2-(3-Methyl-3H-imidazol-4-yl)-2-oxoethyl]-2-(1S,4S)-2-oxa-5-azabicyclo[2.2.1]hept-5-yl-8-trifluoromethyl-6,7,8,9-tetrahydropyrimido[1,2-a]pyrimidin-4-one], the half-maximal inhibitory concentration (IC50) in assay [1] is greater than 10000 nM; in assay [2] (setting [3]), 73 nM.

Take `O=C(CN1c2nc(N3C[C@@H]4C[C@H]3CO4)cc(=O)n2CC[C@H]1C(F)(F)F)C1CC1` [Compound 67, (8S)-9-(2-Cyclopropyl-2-oxoethyl)-2-(1S,4S)-2-oxa-5-azabicyclo[2.2.1]hept-5-yl-8-trifluoromethyl-6,7,8,9-tetrahydropyrimido[1,2-a]pyrimidin-4-one]: the IC50 amounted to 4000 nM in assay [1] and 43 nM in assay [2] (setting [3]).

As to `O=C(CN1c2nc(N3C[C@@H]4C[C@H]3CO4)cc(=O)n2CC[C@H]1C(F)(F)F)c1ccccn1` [Compound 68, (8S)-2-(1S,4S)-2-oxa-5-azabicyclo[2.2.1]hept-5-yl-9-(2-oxo-2-pyrid-2-ylethyl)-8-trifluoromethyl-6,7,8,9-tetrahydropyrimido[1,2-a]pyrimidin-4-one], the IC50 in assay [1] stood at 6600 nM; in assay [2] (setting [3]), 27 nM.

With `Cn1nccc1C(=O)CN1c2nc(N3C[C@@H]4C[C@H]3CO4)cc(=O)n2CC[C@H]1C(F)(F)F` [Compound 69, (8S)-9-[2-(2-methyl-2H-pyrazol-3-yl)-2-oxoethyl]-2-(1S,4S)-2-oxa-5-azabicyclo[2.2.1]hept-5-yl-8-trifluoromethyl-6,7,8,9-tetrahydropyrimido[1,2-a]pyrimidin-4-one], the figures for the IC50 in assay [1] and in assay [2] (setting [3]) were greater than 10000 nM and 96 nM, respectively.

For the compound `CN(C)C(=O)COc1ccc(CCN2c3nc(N4CC5CCC(C4)O5)cc(=O)n3C[C@@]2(C)C(F)(F)F)cc1` [Compound 70, N, N-dimethyl-2-(4-{2-[(S)-2-methyl-7-(8-oxa-3-azabicyclo[3.2.1]oct-3-yl)-5-oxo-2-trifluoromethyl-2,3-dihydro-5H-imidazo[1,2-a]pyrimidin-1-yl]ethyl}phenoxy)acetamide], the IC50 in assay [1] was determined as 1000 nM; in assay [2] (setting [3]), 12 nM.

As to `COc1cc(F)ccc1[C@H](O)CN1c2nc(N3CC4CCC(C3)O4)cc(=O)n2CC[C@H]1C(F)(F)F` [Compound 71, (8S)-9-[(S)-2-(4-fluoro-2-methoxyphenyl)-2-hydroxyethyl]-2-(8-oxa-3-azabicyclo[3.2.1]oct-3-yl)-8-trifluoromethyl-6,7,8,9-tetrahydropyrimido[1,2-a]pyrimidin-4-one], the IC50 in assay [1] amounted to 810 nM; in assay [2] (setting [3]), 23 nM.

One may read the IC50 as the concentration at which inhibition is half-maximal.

For the origin of these results see US9321790B2, “Pyrimidinone derivatives as antimalarial agents” (SANOFI, priority 2012, dated 2016).
